According to patent US10011595B2 (Merck Sharp & Dohme Corp., priority 2014, dated 2018):

Target: human orexin-2 receptor (Homo sapiens (Human), UniProt O43614)
Experiment: FLIPR Ca2+ Flux Assay, orexin-2 receptor
Assay type: cell-based
Details: CHO cells expressing the human orexin-2 receptor; agonist 70 pM Ala-6,12 orexin-A; read-out: hOX2R FLIPR IC50
Description: In a typical experiment the OX1 and OX2 receptor antagonistic activity of the compounds of the present invention was determined in accordance with the following experimental method. For intracellular calcium measurements, Chinese hamster ovary (CHO) cells expressing the rat orexin-1 receptor or the human orexin-2 receptor, are grown in Iscove's modified DMEM containing 2 mM L-glutamine, […], 1% hypoxanthine-thymidine supplement, 100 U/ml penicillin, 100 μg/ml streptomycin and 10% heat-inactivated fetal calf serum (FCS). The cells are seeded at 20,000 cells/well into Becton-Dickinson black 384-well clear bottom sterile plates coated with poly-D-lysine. All reagents were from GIBCO-Invitrogen Corp. The seeded plates are incubated overnight at 37° C. and 5% CO2. Ala-6,12 human orexin-A as the agonist is prepared as a 1 mM stock solution in 1% bovine serum albumin (BSA) and diluted in assay buffer (HBSS containing 20 mM HEPES, 0.1% BSA and 2.5 mM probenecid, pH7.4) for use in the assay at a final concentration of 70 pM. Test compounds are prepared as 10 mM stock solution in DMSO, then diluted in 384-well plates, first in DMSO, then assay buffer. On the day of the assay, cells are washed 3 times with 100 μl assay buffer and then incubated for 60 min (37° C., 5% CO2) in 60 μl assay buffer containing 1 μM Fluo-4AM ester, 0.02% pluronic acid, and 1% BSA. The dye loading solution is then aspirated and cells are washed 3 times with 100 μl assay buffer. 30 μl of that same buffer is left in each well. Within the Fluorescent Imaging Plate Reader (FLIPR, Molecular Devices), test compounds are added to the plate in a volume of 25 μl, incubated for 5 min and finally 25 μl of agonist is added. Fluorescence is measured for each well at 1 second intervals for 5 minutes and the height of each fluorescence peak is compared to the height of the fluorescence peak induced by 70 pM Ala-6,12 orexin-A with buffer in place of antagonist. For each antagonist, IC50 value (the concentration of compound needed to inhibit 50% of the agonist response) is determined. Alternatively, compound potency can be assessed by a radioligand binding assay (described in Bergman et. al. Bioorg. Med. Chem. Lett. 2008, 18, 1425-1430) in which the inhibition constant (Ki) is determined in membranes prepared from CHO cells expressing either the OX1 or OX2 receptor. The intrinsic orexin receptor antagonist activity of a compound which may be used in the present invention may be determined by these assays.

Chain of human orexin-2 receptor (O43614 whole entry): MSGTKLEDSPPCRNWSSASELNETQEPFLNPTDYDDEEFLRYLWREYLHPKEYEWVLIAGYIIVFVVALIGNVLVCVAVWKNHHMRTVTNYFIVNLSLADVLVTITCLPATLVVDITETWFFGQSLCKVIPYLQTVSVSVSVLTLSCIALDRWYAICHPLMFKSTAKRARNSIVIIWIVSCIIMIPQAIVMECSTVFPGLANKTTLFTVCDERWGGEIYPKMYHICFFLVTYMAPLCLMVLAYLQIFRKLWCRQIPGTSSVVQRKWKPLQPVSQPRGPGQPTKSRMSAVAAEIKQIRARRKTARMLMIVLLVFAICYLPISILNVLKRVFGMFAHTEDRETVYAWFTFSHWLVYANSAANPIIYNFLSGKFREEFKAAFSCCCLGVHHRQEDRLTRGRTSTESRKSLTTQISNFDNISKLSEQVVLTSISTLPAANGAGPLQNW

## CCN(CCN(C)c1nc(C)cc(C)n1)C(=O)c1ccccc1N1CCCC1 [Example B-30, N-{2-[(4,6-dimethylpyrimidin-2-yl)(methyl)amino]ethyl}-N-ethyl-2-pyrrolidin-1-ylbenzamide]
  IC50: 0.0185 µM

## CCN(CCN(C)c1nc(C)cc(C)n1)C(=O)c1ccccc1-n1ncnn1 [Example B-31, N-{2-[(4,6-dimethylpyrimidin-2-yl)(methyl)amino]ethyl}-N-ethyl-2-(2H-tetrazol-2-yl)benzamide]
  IC50: 0.0088 µM

## CCN(CCN(C)c1nc(C)cc(C)n1)C(=O)c1ccccc1-c1ncccn1 [Example B-32, N-{2-[(4,6-dimethylpyrimidin-2-yl)(methyl)amino]ethyl}-N-ethyl-2-pyrimidin-2-ylbenzamide]
  IC50: 0.0195 µM

## CCN(CCN(C)c1nc(C)cc(C)n1)C(=O)c1nccnc1-c1ccccn1 [Example B-33, N-{2-[(4,6-dimethylpyrimidin-2-yl)(methyl)amino]ethyl}-N-ethyl-3-pyridin-2-ylpyrazine-2-carboxamide]
  IC50: 0.023 µM

## CCN(CCN(CC)c1nc(C)cc(C)n1)C(=O)c1ccccc1-n1nccn1 [Example C-1, N-(2-((4,6-dimethylpyrimidin-2-yl)(ethyl)amino)ethyl)-N-ethyl-2-(2H-H-1,2,3-triazol-2-yl)benzamide]
  IC50: 0.0366 µM

## CCN(CCN(CC(F)F)c1nc(C)cc(C)n1)C(=O)c1ccccc1-n1nccn1 [Example D-1, N-(2-((2,2-difluoroethyl)(4,6-dimethylpyrimidin-2-yl)amino)ethyl)-N-ethyl-2-(2H-1,2,3-triazol-2-yl)benzamide]
  IC50: 0.0561 µM

## CCN(CCN(C)c1cc(C#N)ccn1)C(=O)c1ccccc1-n1nccn1 [Example E-1, N-(2-((4-cyanopyridin-2-yl)(methyl)amino)ethyl)-N-ethyl-2-(2H-1,2,3-triazol-2-yl)benzamide]
  IC50: 0.0145 µM

## CCN(CCN(C)c1nccc(C#N)c1C)C(=O)c1ccccc1-n1nccn1 [Example E-7, N-(2-((4-cyano-3-methylpyridin-2-yl)(methyl)amino)ethyl)-N-ethyl-2-(2H-1,2,3-triazol-2-yl)benzamide]
  IC50: 0.198 µM

## CCN(CCN(C)c1nccc(C#N)c1Cl)C(=O)c1ccccc1-n1nccn1 [Example E-8, N-{2-[(3-chloro-4-cyanopyridin-2-yl)(methyl)amino]ethyl}-N-ethyl-2-(2H-1,2,3-triazol-2-yl)benzamide]
  IC50: 0.11 µM

## CCN(CCN(C)c1nc(OC)cc(OC)n1)C(=O)c1ccccc1-n1nccn1 [Example E-9, N-{2-[(4,6-dimethoxypyrimidin-2-yl)(methyl)amino]ethyl}-N-ethyl-2-(2H-1,2,3-triazol-2-yl)benzamide]
  IC50: 0.341 µM

## CCN(CCN(C)c1nccc(C#N)n1)C(=O)c1ccccc1-n1nccn1 [Example E-10, N-{2-[(4-cyanopyrimidin-2-yl)(methyl)amino]ethyl}-N-ethyl-2-(2H-1,2,3-triazol-2-yl)benzamide]
  IC50: 0.244 µM

## CCN(CCN(C)c1nc(Cl)cc(N(C)C)n1)C(=O)c1ccccc1-n1nccn1 [Example E-11, N-(2-{[4-chloro-6-(dimethylamino)pyrimidin-2-yl](methyl)amino}ethyl)-N-ethyl-2-(2H-1,2,3-triazol-2-yl)benzamide]
  IC50: 0.0184 µM

## CCN(CCN(C)c1cccc(C#N)n1)C(=O)c1ccccc1-n1nccn1 [Example E-14, N-{2-[(6-cyanopyridin-2-yl)(methyl)amino]ethyl}-N-ethyl-2-(2H-1,2,3-triazol-2-yl)benzamide]
  IC50: 0.569 µM

## CCN(CCN(C)c1ncc(Cl)c(C(F)(F)F)n1)C(=O)c1ccccc1-n1nccn1 [Example E-16, N-(2-{[5-chloro-4-(trifluoromethyl)pyrimidin-2-yl](methyl)amino}ethyl)-N-ethyl-2-(2H-1,2,3-triazol-2-yl)benzamide]
  IC50: 0.0847 µM

## CCN(CCN(C)c1cccc(C#N)n1)C(=O)c1ccccc1-n1nccn1 [Example E-22, N-{2-[(6-cyanopyridin-2-yl)(methyl)amino]ethyl}-N-ethyl-2-(2H-1,2,3-triazol-2-yl)benzamide]
  IC50: 0.569 µM

## CCN(CCN(C)c1cc(C#N)ccn1)C(=O)c1ccccc1OC(F)(F)F [Example F-1, {2-[(4-cyanopyridin-2-yl)(methyl)amino]ethyl}-N-ethyl-2-(trifluoromethoxy)benzamide]
  IC50: 0.0582 µM

## CCN(CCN(C)c1cc(C#N)ccn1)C(=O)c1ccccc1-c1nnn[nH]1 [Example F-5, N-{2-[(4-cyanopyridin-2-yl)(methyl)amino]ethyl}-N-ethyl-2-(1H-tetrazol-5-yl)benzamide]
  IC50: 10 µM

## CCN(CCN(C)c1cc(C#N)ccn1)C(=O)c1cccnc1OCc1ccccc1 [Example F-6, 2-(benzyloxy)-N-{2-[(4-cyanopyridin-2-yl)(methyl)amino]ethyl}-N-ethylpyridine-3-carboxamide]
  IC50: 0.0979 µM

## CCN(CCN(C)c1cc(C#N)ccn1)C(=O)c1cccnc1Oc1ccccc1 [Example F-7, N-{2-[(4-cyanopyridin-2-yl)(methyl)amino]ethyl}-N-ethyl-2-phenoxypyridine-3-carboxamide]
  IC50: 10 µM

## CCN(CCN(C)c1cc(C#N)ccn1)C(=O)c1cccnc1C(F)(F)F [Example F-8, N-{2-[(4-cyanopyridin-2-yl)(methyl)amino]ethyl}-N-ethyl-2-(trifluoromethyl)pyridine-3-carboxamide]
  IC50: 1.99 µM

## CCN(CCN(C)c1cc(C#N)ccn1)C(=O)c1ccccc1-n1ccnc1 [Example F-9, N-{2-[(4-cyanopyridin-2-yl)(methyl)amino]ethyl}-N-ethyl-2-(1H-imidazol-1-yl)benzamide]
  IC50: 10 µM

## CCN(CCN(C)c1cc(C#N)ccn1)C(=O)c1ccccc1C1(C#N)CCOCC1 [Example F-10, N-{2-[(4-cyanopyridin-2-yl)(methyl)amino]ethyl}-2-(4-cyanotetrahydro-2H-pyran-4-yl)-N-ethylbenzamide]
  IC50: 7.2 µM

## CCN(CCN(C)c1cc(C#N)ccn1)C(=O)c1ccccc1-c1cnccn1 [Example F-11, N-{2-[(4-cyanopyridin-2-yl)(methyl)amino]ethyl}-N-ethyl-2-pyrazin-2-ylbenzamide]
  IC50: 0.023 µM

## CCN(CCN(C)c1cc(C#N)ccn1)C(=O)c1ccccc1-n1cccn1 [Example F-12, N-{2-[(4-cyanopyridin-2-yl)(methyl)amino]ethyl}-N-ethyl-2-(1H-pyrazol-1-yl)benzamide]
  IC50: 0.0496 µM

## CCN(CCN(C)c1cc(C#N)ccn1)C(=O)c1ccccc1OCCF [Example F-13, N-{2-[(4-cyanopyridin-2-yl)(methyl)amino]ethyl}-N-ethyl-2-(2-fluoroethoxy)benzamide]
  IC50: 0.0484 µM

## CCN(CCN(C)c1cc(C#N)ccn1)C(=O)c1ccccc1OCC(F)(F)F [Example F-14, N-{2-[(4-cyanopyridin-2-yl)(methyl)amino]ethyl}-N-ethyl-2-(2,2,2-trifluoroethoxy)benzamide]
  IC50: 0.0774 µM

## CCN(CCN(C)c1cc(C#N)ccn1)C(=O)c1c(F)cccc1-n1nccn1 [Example F-15, N-{2-[(4-cyanopyridin-2-yl)(methyl)amino]ethyl}-N-ethyl-2-fluoro-6-(2H-1,2,3-triazol-2-yl)benzamide]
  IC50: 0.0339 µM

## CCN(CCN(C)c1cc(C#N)ccn1)C(=O)c1ccccc1COC [Example F-16, N-{2-[(4-cyanopyridin-2-yl)(methyl)amino]ethyl}-N-ethyl-2-(methoxymethyl)benzamide]
  IC50: 0.688 µM

## CCN(CCN(C)c1cc(C#N)ccn1)C(=O)c1c(F)cccc1-n1ccnn1 [Example F-17, N-{2-[(4-cyanopyridin-2-yl)(methyl)amino]ethyl}-N-ethyl-2-fluoro-6-(1H-1,2,3-triazol-1-yl)benzamide]
  IC50: 0.945 µM

## CCN(CCN(C)c1cc(C#N)ccn1)C(=O)c1cccc2[nH]c(=O)oc12 [Example F-18, N-{2-[(4-cyanopyridin-2-yl)(methyl)amino]ethyl}-N-ethyl-2-oxo-2,3-dihydro-1,3-benzoxazole-7-carboxamide]
  IC50: 10 µM

## CCOc1nc2cccc(C(=O)N(CC)CCN(C)c3cc(C#N)ccn3)c2[nH]1 [Example F-19, N-{2-[(4-cyanopyridin-2-yl)(methyl)amino]ethyl}-2-ethoxy-N-ethyl-1H-benzimidazole-7-carboxamide]
  IC50: 10 µM

## CCN(CCN(C)c1cc(C#N)ccn1)C(=O)c1cc(C)ccc1-n1nccn1 [Example F-20, N-{2-[(4-cyanopyridin-2-yl)(methyl)amino]ethyl}-N-ethyl-5-methyl-2-(2H-1,2,3-triazol-2-yl)benzamide]
  IC50: 0.0162 µM
